The values below come from patent EP1101492A1, “NOVEL REMEDIES FOR ALLERGIC DISEASES” (FUJI YAKUHIN KOGYO KABUSHIKI KAISHA, priority 1998, dated 2000).

Data set [1] concerns mouse experimental atopic dermatitis models. Kind of data set: Auricle edema in experimental atopic dermatitis model (anti-DNP IgE sensitization, DNFB elicitation). Particulars: test compounds 60 mg/kg s.c., prednisolone 10 mg/kg i.p.; for % Inhibition IPR: auricle edema 1 hour post-elicitation; for % Inhibition IPR / % Inhibition LPR: once a day, 24 & 2 hours prior to DNFB-elicitation, vs untreated group; for % Inhibition LPR: auricle edema Day 1 post-elicitation; for % Inhibition vLPR: auricle edema Day 7 post-elicitation. The class given is in vivo, Balb/c mice. Here is the method: Intravenous injection of an anti-2,4-dinitrophenol (DNP) antibody (anti-DNP Ab, monoclonal IgE Ab; its antibody titer was 1 : 512 to 1 : 1024 by a rat heterologous passive cutaneous anaphylaxis reaction using a Wister rat) into a tail vein of female Balb/c mice (7-week old, body weight: 17 to 20 g, purchased from JAPAN SLC, Inc.) at a dose of […] per animal raised passive sensitization. Twenty four hours post-sensitization, 0.1% 2,4-dinitrofluorobenzene (DNFB; Nacalai Tesque, Inc.) in ethanol was painted onto both sides of a pair of mouse auricles at a dose of 10µL per each side for elicitation.
Fresh unsensitized mice were painted with 0.1% DNFB in ethanol onto their ear in the same manner as aforementioned and served as a control group. Not only immediately prior to elicitation but also 1 hour, 5 hours, daily between Days 1 and 14, and on Day 16 post-elicitation, ear thickness was measured using a dial thickness gauge (Peacock Co.). Each degree of auricle edemas was calculated: Auricular Edema (µm)=(Ear Thickness Post-Elicitation, µm) - (Ear Thickness immediately prior to Elicitation, µm) [formula]
Balb/c mice were passively sensitized with anti-DNP IgE Ab in the same manner as in Example 1. Twenty four hours later, 0.1% DNFB in ethanol was painted onto both sides of a pair of mouse auricles at a dose of 10 µL per each side for elicitation.
Immediately prior to elicitation, 1 hour and on Day 1 post-elicitation, auricle thickness was measured in the same manner as in Example 1. Each therapeutic efficacy is recorded as a percent inhibition wherein the "auricle edema (untreated group)" is used as a control. Auricle Edema Inhibition (%) = [ 1 -(Auricle Edema (Treated Group))/(Auricle Edema (Untreated Group))] × 100 (%) [formula]
Immediately prior to elicitation, and on Day 7 post-elicitation, auricle thickness was similarly measured. Each therapeutic efficacy is recorded as a percent inhibition wherein the auricle edema in the untreated group is used as a control.
Immediately prior to elicitation, and on Day 7 post-elicitation, auricle thickness was similarly measured. Each therapeutic efficacy is recorded as a percent inhibition wherein the auricle edema (untreated group) is used as a control.
Immediately prior to elicitation, at 1 and 4 hours and on Days 1, 3 and 7 post-elicitation, auricle thickness was similarly measured. From each auricle edema (µm) based on the auricle thickness immediately prior to elicitation, especially a prophylactically therapeutic efficacy of the test compound was evaluated.
Immediately prior to elicitation, at 0.5, 1 and 4 hours and on Days 1, 3 and 7 post-elicitation, auricle thickness was similarly measured. Each amount of auricle edemas was calculated (average± standard deviation).

Another data set in a line: Body weight gain in mice. Particulars: test compounds 60 mg/kg s.c., prednisolone 10 mg/kg i.p., once a day for 6 days (Days 0-5), average ± standard deviation; for Body Weight Gain, Observation Day 5: non-administered 0.50± 0.23; for Body Weight Gain, Observation Day 7: non-administered 0.80± 0.48; for Body Weight Gain, Observation Day 10: non-administered 1.07± 0.58.
Data set [2] has as its system guinea pig experimental bronchial asthma models. Kind of data set: Experimental bronchial asthma model (ovalbumin inhalation): airway resistance and asthmatic death.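 On all read-outs here: female Std:Hartley guinea pigs sensitized by inhaling nebulized ovalbumin once daily for 8 consecutive days, 8 to 11 animals per group.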 Particulars: test compounds 15 mg/kg s.c. (Compound No. 114: 30 mg/kg), prednisolone 10 mg/kg orally; for % Survival: asthmatic death within several minutes after elicitation, water for injection 54.5, 0.5% methyl cellulose 66.7; for % Amelioration in Airway Resistance, 1 Hour after Elicitation / % Amelioration in Airway Resistance, 6 Hours after Elicitation / % Amelioration in Airway Resistance, Immediately after Elicitation: 24 and 2 hours prior to elicitation, vs solvent control.
Experimental: Guinea pigs (female, Std:Hartley, 3 weeks old, 200 to 250 g) were individually housed in a plastic chamber (width, 200 mm; depth, 300 mm; height, 167 mm). Aqueous ovalbumin (10 mg/mL) was administered to the guinea pigs once a day for sensitization by 10 min. inhalation with a nebulizer (5B, Nippon Shoji K.K.: flow rate, 6 L/min.) at a dose of 10 mg/mL during 8 cosecutive days. On Day 7 after the final sensitization, the guinea pigs were housed in a plastic chamber and inhaled using a nebulizer with a solution of ovalbumin (10 mg/mL) in physiological saline for 1 min. for elicitation (Matsumoto, T., et al., The Journal of Pharmacology and Experimental Therapeutics, 269: 1236-1244, 1994). The number of animals employed in the experiment was set to the extent there are at least 6 as individuals escaping asthmatic death. A solution of a test compound (Compound No. 130, 15 mg/kg) in water for injection was administered subcutaneously twice, i.e., 24 hours and 2 hours prior to elicitation. Similarly, the solvent alone was also administered to a negative control group. A suspension of prednisolone (10 mg/kg) in 0.5% aqueous methyl cellulose was administered orally twice, i.e., 24 hours and 2 hours prior to elicitation. Similarly, the solvent alone was also administered to another control group.
The evaluation for efficacies was conducted in terms of airway resistance. For this purpose, an apparatus dedicated to the measurement of airway resistance (K.K. Medical Agent) was employed. Measurement includes setting a guinea pig in a test chamber under a not-anesthetized condition, applying sinusoidal pressure waves of 30 Hz components to a part below the neck of the animal from the back side of the chamber, measuring respiratory waves of 30 Hz components leaking through the mouth (volume of 30 Hz air flow passing through the respiratory tract) in front of the neck, and calculating airway resistance mechanically. Measurement was carried out immediately prior to the first drug treatment (24 hours before elicitation), just prior to elicitation, 10 minutes, 1, 2, 4, 6, and 8 hours post-elicitation.
It was visually observed by a person carrying out said test in terms, of the appearance of cyanosis or suffocative death (asthmatic death) due to respiratory obstruction.
Guinea pigs were sensitized with ovalbumin and asthma was induced on Day 7 after final sensitization in the same manner as in Example 20. The number of animals employed in the experiment was set to the extent there are at least 6 as individuals escaping asthmatic death (8 to 11 animals/group). In the same manner as in Example 20, the animals were measured for airway resistance mechanically and each percent change (%) in airway resistance was calculated (each value just prior to elicitation was set as 100%). Each percent amelioration in airway resistance was calculated from the percent changes in airway resistance according to the following formula: Amelioration in Airway Resistance (%) = 1 -[((Percent Change in Airway Resistance after Drug-Administration) - (Value just prior to Challenge (100)))/((Percent Change in Airway Resistance after Solvent-Administration) - (Value just prior to Challenge (100)))]× 100 [formula]

Setting [3] is: daily from 3 to 6 days after DNFB-elicitation.
[4] abbreviates: daily from 1 day prior to through 5 days after DNFB-elicitation.

Experimental for Body weight gain in mice: Accordingly, for assessing the side-effect each of the following test compounds an action on body weight gains was examined.
Next the mice were measured for their body weight. Each body weight gain was calculated on Days 5, 7 and 10 post-administration based on the body weight just prior to administration.

As for `CNC(=O)C(CCCCNC(C)=N)NC(=O)C(CC(C)C)C(C)C(=O)NO` (racemic) [Compound No. 22, N^a-[4-(Hydroxyamino)-2(R)-isobutyl-3(RS)-methylsuccinyl]-N^e-acetimidoyl-L-lysine N-methylamide · 1 acetate], in data set [1], the “% Inhibition IPR” value was 52.7% and the “% Inhibition LPR” value amounted to 33.1%. In addition, the “% Inhibition vLPR” value in data set [1] (setting [3]) came out at 49.5%. In the data set “Body weight gain in mice”, the “Body Weight Gain, Observation Day 5” value was 0.97± 0.31; the “Body Weight Gain, Observation Day 7” value amounted to 0.80± 0.39; the “Body Weight Gain, Observation Day 10” value was determined as 1.20± 0.53.
With `CNC(=O)C(CCCN)NC(=O)C(CC(C)C)C(CCCc1ccc(NC(=N)N)cc1)C(=O)NO` (racemic) [Compound No. 46, N^a-[4-(Hydroxyamino)-2(R)-isobutyl-3(RS)-[3-(4'-guanidinophenyl)propyl]succinyl]-L-ornithine-N-methylamide · 2 acetate], the “% Inhibition LPR” value in data set [1] was 46.7%. In addition, the “% Inhibition vLPR” value in data set [1] (setting [4]) is on record as 27.5%. Further, in “Body weight gain in mice”, the “Body Weight Gain, Observation Day 5” value is on record as 1.08± 0.22; the “Body Weight Gain, Observation Day 7” value is listed as 1.57± 0.33; the “Body Weight Gain, Observation Day 10” value is given as 1.33± 0.32.
Regarding `CC(=N)NCc1ccc(CC(NC(=O)C(CC(C)C)C(CC(C)C)C(=O)NO)C(=O)NCCO)cc1` (racemic) [Compound No. 91, N^a-[4-(Hydroxyamino)-2(R),3(RS)-diisobutylsuccinyl]-4'-acetimidoyliminomethyl-L-phenylalanine N-(2-hydroxyethyl)amide · 2 acetate], the “% Inhibition LPR” value in data set [1] came to 43.0%. In “Body weight gain in mice”, the “Body Weight Gain, Observation Day 5” value was 1.28± 0.37; the “Body Weight Gain, Observation Day 7” value was 1.55± 0.48; the “Body Weight Gain, Observation Day 10” value was 1.30± 0.54.
For the compound `CNC(=O)C(CCCNC(=N)N)NC(=O)C(CC(C)C)C(Cc1ccc(CN2C(=O)c3ccccc3C2=O)cc1)C(=O)NO` (single isomer, unassigned) [Compound No. 51, N^a-[4-(Hydroxyamino)-2(R)-isobutyl-3(R or S)-(p-phthalimidomethylbenzyl)succinyl]-L-arginine N-methylamide · 1 acetate], in data set [2], the “% Survival” value was determined as 70.0%; the “% Amelioration in Airway Resistance, 1 Hour after Elicitation” value (shortened to “% Amelioration … 1 Hour after Elicitation”) came to 59.1%; the “% Amelioration in Airway Resistance, 6 Hours after Elicitation” value (from here on “% Amelioration … 6 Hours after Elicitation”) was found to be 56.3%; the “% Amelioration in Airway Resistance, Immediately after Elicitation” value was found to be 30.1%.
On the same counts, the results for `CNC(=O)[C@H](CCCCN)NC(=O)[C@H](CC(C)C)C(CCCc1ccc(C(=O)OC)cc1)C(=O)NO` (single isomer, unassigned) [Compound No. 65, N^a-[4-(Hydroxyamino)-2(R)-isobutyl-3(R or S)-[3-(p-methoxycarbonylphenyl)propyl]succinyl]-L-lysine N-methylamide · 1 acetate] are 87.5%, 22.3%, 63.6% and 29.9%.
In the case of `CC(=N)N=Cc1ccc(C[C@H](NC(=O)[C@H](CC(C)C)C(CC(C)C)C(=O)NO)C(=O)NCCN(C)C)cc1.CC(=O)O.CC(=O)O` (single isomer, unassigned) [Compound No. 90, N^a-[4-(Hydroxyamino)-2(R),3(R or S)-diisobutylsuccinyl]-4'-acetimidoyliminomethyl-L-phenylalanine N-(2-N',N'-dimethylaminoethyl)amide · 2 acetate], the “% Inhibition vLPR” value in data set [1] (setting [4]) is on record as 20.6%.
For `CC(=O)O.CNC(=O)[C@H](Cc1ccc(CNC(C)=N)cc1)NC(=O)[C@H](CC(C)C)[C@H](O)C(=O)NO` [Compound No. 43, N^a-[4-(Hydroxyamino)-2(R)-isobutyl-3(S)-hydroxysuccinyl]-4'-acetimidoyliminomethyl-L-phenylalanine N-methylamide · 1 acetate], in data set [1], the “% Inhibition IPR” value stood at 38.2% and the “% Inhibition LPR” value amounted to 39.2%. Besides, the “% Inhibition vLPR” value in data set [1] (setting [3]) turned out to be 43.6%.
Turning to `CC(=O)O.CNC(=O)[C@H](Cc1ccc(NC(=N)N)cc1)NC(=O)[C@@H](CC(=O)NO)CC(C)C` [Compound No. 121, N-[4-(N-Hydroxyamino)-2(R)-isobutylsuccinyl]-L-4'-guanidophenylalanine-N-methylamide 1 acetate], in data set [2], the “% Survival” value was 88.9%; the “% Amelioration … 1 Hour after Elicitation” value was 56.4%; the “% Amelioration … 6 Hours after Elicitation” value came out at 102.2%.
With `CC(=O)O.CNC(=O)[C@H](Cc1ccc(CNC(C)=N)cc1)NC(=O)[C@H](CC(C)C)[C@H](CCCc1ccccc1)C(=O)NO` [Compound No. 126, N-[4-(N-Hydroxyamino)-2(R)-isobutyl-3(S)-(3-phenyltrimethylene)succinyl]-L-4'-acetimidoyliminomethylenephenyl alanine-N-methylamide · 1 acetate], in data set [1], the “% Inhibition IPR” value was 38.2% and the “% Inhibition LPR” value worked out at 39.2%. Besides, the “% Inhibition vLPR” value in data set [1] (setting [3]) worked out at 44.7%.
Regarding `CC(=O)O.CC(C)C[C@H](C(=O)NO)[C@@H](CC(C)C)C(=O)N[C@@H](Cc1ccc(CN)cc1)C(=O)NCCC(=O)O` [Compound No. 127, N-[4-(N-Hydroxyamino)-2(R),3(S)-diisobutylsuccinyl]-L-4'-aminomethylphenylalaninyl-β-alanine · 1 acetate], in data set [1], the “% Inhibition IPR” value was 47.8% and the “% Inhibition LPR” value was determined as 41.1%. In addition, the “% Inhibition vLPR” value in data set [1] (setting [3]) is 20.6%. Further, the “% Inhibition vLPR” value in data set [1] (setting [4]) is 46.7%. Moreover, in data set [2], the “% Survival” value was 70.0%; the “% Amelioration … 1 Hour after Elicitation” value was found to be 20.8%; the “% Amelioration … 6 Hours after Elicitation” value turned out to be 55.2%; the “% Amelioration in Airway Resistance, Immediately after Elicitation” value was 21.9%.
Take `CNC(=O)[C@H](Cc1ccc(CN)cc1)NC(=O)[C@H](CC(C)C)[C@@H](CCCc1ccccc1)C(=O)NO.Cl` [Compound No. 128, N-[4-(N-Hydroxyamino)-2(R)-isobutyl-3(R)-(3-phenylpropyl)succinyl)-L-4'-aminomethylphenylalanine-N-methylamide · 1 hydrochloride]: in data set [2], the “% Survival” value is 72.7%; the “% Amelioration … 1 Hour after Elicitation” value stood at 53.2%; the “% Amelioration … 6 Hours after Elicitation” value is 49.4%.
